For test [1], the target named is T1, Tyrosine-protein phosphatase non-receptor type 1 (Homo sapiens) (UniProt P18031).
T1 sequence (whole entry): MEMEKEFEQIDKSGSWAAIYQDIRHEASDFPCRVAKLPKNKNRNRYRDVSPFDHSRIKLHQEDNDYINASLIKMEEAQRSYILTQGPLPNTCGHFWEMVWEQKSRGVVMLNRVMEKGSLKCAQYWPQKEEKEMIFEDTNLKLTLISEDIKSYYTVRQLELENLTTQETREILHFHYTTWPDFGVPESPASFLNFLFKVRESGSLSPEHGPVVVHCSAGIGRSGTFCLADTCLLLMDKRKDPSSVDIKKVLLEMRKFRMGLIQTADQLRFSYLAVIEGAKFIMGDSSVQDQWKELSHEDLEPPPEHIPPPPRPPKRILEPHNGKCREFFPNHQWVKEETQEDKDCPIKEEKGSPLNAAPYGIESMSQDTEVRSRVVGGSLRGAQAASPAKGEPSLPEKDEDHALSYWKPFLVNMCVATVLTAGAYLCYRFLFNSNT
The test can be described thus: Binding affinity to recombinant human N-terminal poly histidine-tagged PTP1B (Glu2 to Asn321 residues) expressed in Escherichia coli assessed as association rate constant by surface plasmon resonance analysis. (In general: Surface plasmon resonance follows binding to a sensor surface in real time, without labels.)

Test [2] has as its target T1, Tyrosine-protein phosphatase non-receptor type 1 (Homo sapiens). The experiment in a line: Binding affinity to recombinant human N-terminal poly histidine-tagged PTP1B (Glu2 to Asn321 residues) expressed in Escherichia coli assessed as dissociation rate constant by surface plasmon resonance analysis.
In test [3] the target is T2, Tyrosine-protein phosphatase non-receptor type 1 (Homo sapiens, UniProt P18031).
T2 sequence (P18031 whole entry): T1 sequence (whole entry)
The test can be described thus: Binding affinity to recombinant human N-terminal poly histidine-tagged PTP1B (Glu2 to Asn321 residues) expressed in Escherichia coli by surface plasmon resonance analysis.

Test [4] has as its target T1, Tyrosine-protein phosphatase non-receptor type 1 (Homo sapiens). The test can be described thus: (§1) Inhibition of recombinant human N-terminal poly histidine-tagged PTP1B (Glu2 to Asn321 residues) expressed in Escherichia coli at 40 umol/L using pNPP as substrate measured for 4 mins relative to control.
Test [5] deals with Tyrosine-protein phosphatase non-receptor type 1 (Homo sapiens) (UniProt P18031). The description is as §1. This is another data set of the same source.

From ChEMBL document CHEMBL4371021, “BH3 mimetics derived from Bim-BH3 domain core region show PTP1B inhibitory activity” (Bioorg Med Chem Lett, 2019) come the findings set out here.

As for Ac-IWIAQELRRIGDEF-NH2, the Ka in test [1] turned out to be 9880 M⁻¹ s⁻¹. Moreover, in test [2], the Kdiss is 1.26 ×10⁻³ /s. For the same substance, the Kd in test [3] stood at 128 nM. Further, the inhibition in test [4] stood at 5%.

On to Ac-IAQELRRIGDEF-NH2, for which, in test [4], the inhibition was found to be 2.1%.

Regarding Ac-WIAQELRRIGDEFN-NH2, the inhibition in test [4] came out at 9.43%.

Turning to SODIUM ORTHOVANAD, the inhibition in test [5] came to 75.4%.

Broadly, the Kd is the concentration at which binding is half-saturated. One may read the inhibition as the change of the read-out against control, counted positive when it falls.
